Where a chain is given by its changes, count along the chain named. Where two headings read alike, the source gives them in different places.
Experiments:
M1 receptor = molecular target: T1, M1 receptor (Rattus norvegicus, UniProt P08482); assay: M1 PAM assay (FLIPR intracellular calcium), rat; type: cell-based
T1 construct: expressed in transfected cells
T1 sequence (P08482 1-460): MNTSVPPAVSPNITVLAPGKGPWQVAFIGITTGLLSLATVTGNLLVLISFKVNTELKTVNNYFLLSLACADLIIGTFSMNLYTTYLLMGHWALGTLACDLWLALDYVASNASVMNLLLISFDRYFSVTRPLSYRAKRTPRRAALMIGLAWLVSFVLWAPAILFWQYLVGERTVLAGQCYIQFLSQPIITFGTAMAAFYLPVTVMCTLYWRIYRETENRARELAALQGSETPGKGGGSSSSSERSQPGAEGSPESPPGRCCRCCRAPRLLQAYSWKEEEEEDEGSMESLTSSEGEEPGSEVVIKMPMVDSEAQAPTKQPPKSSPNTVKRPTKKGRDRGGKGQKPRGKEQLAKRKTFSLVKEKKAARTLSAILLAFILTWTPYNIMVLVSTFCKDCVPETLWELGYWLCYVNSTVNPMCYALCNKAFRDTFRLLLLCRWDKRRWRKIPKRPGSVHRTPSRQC

human M1 = molecular target: T2, human M1 (Homo sapiens, UniProt P11229); assay: M1 PAM assay (FLIPR intracellular calcium, CHO human M1); type: cell-based
T2 construct: expressed in transfected cells; host or cells: CHO cells
T2 sequence (P11229 1-460): T1 sequence (P08482 1-460) with V5A, S254T, S309P, K320R, G337A, V413I
Experimental: The assay study the effect of several concentrations of test compounds on basal or acetylcholine-stimulated Ca^2+ levels using FLIPR. CHO human M1 are plated the day before the experiments at 2×10^5 cells/ml in PDL BioCoat 96 well black/clear plate (Becton 35 4640). The cells are grown at 37° C. and 5% CO2 in the following medium: F12 Nut Mix (Gibco 21765), 10% FCS heat inactivated (GIBCO 16000-044), 1% Pen Strep (Gibco, 15140) and 200 μg/ml Geneticin (Gibco 11811). On the day of the experiment, the medium was removed and replaced by 100 μl of dye loading buffer containing Hanks Balanced Salt solution (HBSS, 14065-049, Gibco) with 20 mM HEPES (Gibco 15630-056), 2 mM Probenicid (Sigma P8761), […] (Molecular Probes F-14202), 10% Pluronic acid Molecular Probes P-3000) pH=7.4 and incubated at 37° C. After 60 minutes extracellular dye was removed and the cells were washed five times with FLIPR buffer containing HBSS (Gibco 14065-049) with 20 mM HEPES (Gibco, 15630-056), 2 mM Probenicid (Sigma P8761) pre-warmed at 37° C. using and Ebml cell washer leaving 100 μl of FLIPR buffer in each well. The cell plate and the diluted compounds (1% DMSO final concentration) are placed on the platform of the FLIPR and the door closed. A signal test to check background fluorescence and basal fluorescence signal is performed. Laser intensity is adjusted if necessary. Two minutes preincubation with the diluted test compounds is provide to determine any agonist activity on the M1 receptor by comparison to 30 nM Acetylcholine control. In order to determine any modulator activity the diluted compounds were added to cells and after two minutes preincubation, the EC20 of acetylcholine is added followed by another two minutes preincubation before the measurement of intracellular Ca^2+ with a FLIPR (Molecular Devices).

[1] = human M1 in CHO cells, modulator activity with EC20 of acetylcholine, FLIPR Ca2+, read-out: EC50 h PAM

Row | SMILES | EC50 (M1 receptor) [nM] | EC50 (human M1) [nM] | EC50 (human M1; [1]) [nM]
1 | Cn1cc(-c2ccc(Cn3cc(C(=O)N[C@H]4CCOC[C@@H]4O)c4ncccc43)c(F)c2)cn1 (racemic) [Example 4, 1-(2-fluoro-4-(1-methyl-1H-pyrazol-4-yl)benzyl)-N-((3RS,4SR)-3-hydroxytetrahydro-2H-pyran-4-yl)-1H-pyrrolo[3,2-b]pyridine-3-carboxamide] | 58.7 | 28.6 | 
2 | COCC(O)CNC(=O)c1cn(Cc2ccc(-c3cnn(C)c3)cc2F)c2cccnc12 (racemic) [Example 7, rac-1-[2-Fluoro-4-(1-methyl-1H-pyrazol-4-yl)-benzyl]-1H-pyrrolo[3,2-b]pyridine-3-carboxylic acid (2-hydroxy-3-methoxy-propyl)-amide] |  |  | 232
3 | Cn1cc(-c2ccc(Cn3cc(C(=O)N[C@H]4CCCC[C@H]4O)c4ncccc43)c(F)c2)cn1 (racemic) [Example 37] | 123 | 162 | 
4 | Cn1cc(-c2ccc(Cn3cc(C(=O)N[C@H]4CCCC[C@]4(C)O)c4ncccc43)c(F)c2)cn1 (racemic) [Example 39, 1-(2-fluoro-4-(1-methyl-1H-pyrazol-4-yl)benzyl)-N-((1SR,2SR)-2-hydroxy-2-methylcyclohexyl)-1H-pyrrolo[3,2-b]pyridine-3-carboxamide] | 264 | 177 | 
5 | Cn1cc(-c2ccc(Cn3cc(C(=O)N[C@H]4CCCC[C@@]4(C)O)c4ncccc43)c(F)c2)cn1 (racemic) [Example 40, 1-(2-fluoro-4-(1-methyl-1H-pyrazol-4-yl)benzyl)-N-((1SR,2RS)-2-hydroxy-2-methylcyclohexyl)-1H-pyrrolo[3,2-b]pyridine-3-carboxamide] | 63.2 | 47.9 | 
6 | Cn1cc(-c2ccc(Cn3cc(C(=O)N[C@H]4CCOC[C@@H]4O)c4ncccc43)cn2)cn1 (racemic) [Example 57, N-((3RS,4SR)-3-hydroxytetrahydro-2H-pyran-4-yl)-1-((6-(1-methyl-1H-pyrazol-4-yl)pyridin-3-yl)methyl)-1H-pyrrolo[3,2-b]pyridine-3-carboxamide] | 133 | 143 | 
7 | C[C@@H](O)CNC(=O)c1cn(Cc2ccc(-c3cnn(C)c3)cc2F)c2cccnc12 [Example 9] |  |  | 459
8 | C[C@H](O)CNC(=O)c1cn(Cc2ccc(-c3cnn(C)c3)cc2F)c2cccnc12 [Example 10] |  |  | 477
9 | Cn1cc(-c2ccc(Cn3cc(C(=O)NC[C@@H](O)CO)c4ncccc43)c(F)c2)cn1 [Example 15, 1-[2-Fluoro-4-(1-methyl-1H-pyrazol-4-yl)-benzyl]-1H-pyrrolo[3,2-b]pyridine-3-carboxylic acid ((R)-2,3-dihydroxy-propyl)-amide] |  |  | 333
10 | Cn1cc(-c2ccc(Cn3cc(C(=O)N[C@@H]4CCC[C@H]4O)c4ncccc43)c(F)c2)cn1 [Example 16, 1-[2-Fluoro-4-(1-methyl-1H-pyrazol-4-yl)-benzyl]-1H-pyrrolo[3,2-b]pyridine-3-carboxylic acid ((1R,2R)-2-hydroxy-cyclopentyl)-amide] |  | 397 | 
11 | CC(C)[C@H](CO)NC(=O)c1cn(Cc2ccc(-c3cnn(C)c3)cc2F)c2cccnc12 [Example 21, 1-[2-Fluoro-4-(1-methyl-1H-pyrazol-4-yl)-benzyl]-1H-pyrrolo[3,2-b]pyridine-3-carboxylic acid ((R)-1-hydroxymethyl-2-methyl-propyl)-amide] |  | 201 | 
12 | CCC[C@@H](CO)NC(=O)c1cn(Cc2ccc(-c3cnn(C)c3)cc2F)c2cccnc12 [Example 23, 1-[2-Fluoro-4-(1-methyl-1H-pyrazol-4-yl)-benzyl]-1H-pyrrolo[3,2-b]pyridine-3-carboxylic acid ((S)-1-hydroxymethyl-butyl)-amide] |  | 205 | 
13 | CC(C)C[C@@H](CO)NC(=O)c1cn(Cc2ccc(-c3cnn(C)c3)cc2F)c2cccnc12 [Example 25, 1-[2-Fluoro-4-(1-methyl-1H-pyrazol-4-yl)-benzyl]-1H-pyrrolo[3,2-b]pyridine-3-carboxylic acid ((S)-1-hydroxymethyl-3-methyl-butyl)-amide] |  |  | 233
14 | Cn1cc(-c2ccc(Cn3cc(C(=O)Nc4ccccc4CO)c4ncccc43)c(F)c2)cn1 [Example 29, 1-[2-Fluoro-4-(1-methyl-1H-pyrazol-4-yl)-benzyl]-1H-pyrrolo[3,2-b]pyridine-3-carboxylic acid (2-hydroxymethyl-phenyl)-amide] |  |  | 298
15 | Cn1cc(-c2ccc(Cn3cc(C(=O)NCC(O)c4ccccc4)c4ncccc43)c(F)c2)cn1 (stereo not shown) [Example 31, 1-[2-Fluoro-4-(1-methyl-1H-pyrazol-4-yl)-benzyl]-1H-pyrrolo[3,2-b]pyridine-3-carboxylic acid (2-hydroxy-2-phenyl-ethyl)-amide] |  |  | 429
16 | Cc1ccc(NC(=O)c2cn(Cc3ccc(-c4cnn(C)c4)cc3F)c3cccnc23)c(CO)c1 [Example 33, 1-[2-Fluoro-4-(1-methyl-1H-pyrazol-4-yl)-benzyl]-1H-pyrrolo[3,2-b]pyridine-3-carboxylic acid (2-hydroxymethyl-4-methyl-phenyl)-amide] |  |  | 282
17 | Cc1cccnc1NC(=O)c1cn(Cc2ccc(-c3cnn(C)c3)cc2F)c2cccnc12 [Example 35, 1-[2-Fluoro-4-(1-methyl-1H-pyrazol-4-yl)-benzyl]-1H-pyrrolo[3,2-b]pyridine-3-carboxylic acid (3-methyl-pyridin-2-yl)-amide] |  |  | 320
18 | CO[C@H]1CCCC[C@@H]1NC(=O)c1cn(Cc2ccc(-c3cnn(C)c3)cc2F)c2cccnc12 [Example 38, 1-[2-Fluoro-4-(1-methyl-1H-pyrazol-4-yl)-benzyl]-1H-pyrrolo[3,2-b]pyridine-3-carboxylic acid ((1S,2S)-2-methoxy-cyclohexyl)-amide] |  |  | 369
19 | Cn1cc(-c2ccc(Cn3cc(C(=O)N[C@@H]4COCC[C@H]4O)c4ncccc43)c(F)c2)cn1 [Example 42, 1-(2-fluoro-4-(1-methyl-1H-pyrazol-4-yl)benzyl)-N-((3R,4R)-4-hydroxytetrahydro-2H-pyran-3-yl)-1H-pyrrolo[3,2-b]pyridine-3-carboxamide] |  | 487 | 
20 | O=C(N[C@H]1CCCC[C@@H]1O)c1cn(Cc2ccc(Br)cc2)c2cccnc12 [Example 50, 1-(4-bromobenzyl)-N-((1S,2S)-2-hydroxycyclohexyl)-1H-pyrrolo[3,2-b]pyridine-3-carboxamide] |  |  | 319
21 | Cn1cc(-c2cccc(Cn3cc(C(=O)N[C@H]4CCCC[C@@H]4O)c4ncccc43)c2)cn1 [Example 51, N-((1S,2S)-2-hydroxycyclohexyl)-1-(3-(1-methyl-1H-pyrazol-4-yl)benzyl)-1H-pyrrolo[3,2-b]pyridine-3-carboxamide] |  | 443 | 
22 | N#Cc1ccc(Cn2cc(C(=O)N[C@H]3CCCC[C@@H]3O)c3ncccc32)c(F)c1 [Example 53, 1-(4-cyano-2-fluorobenzyl)-N-((1S,2S)-2-hydroxycyclohexyl)-1H-pyrrolo[3,2-b]pyridine-3-carboxamide] |  | 321 | 
23 | O=C(N[C@H]1CCCC[C@@H]1O)c1cn(Cc2ccc(Cl)cc2)c2cccnc12 [Example 54, 1-(4-chlorobenzyl)-N-((1S,2S)-2-hydroxycyclohexyl)-1H-pyrrolo[3,2-b]pyridine-3-carboxamide] |  | 264 | 
